Test system: T and NK cells
Experiment: High parameter flow cytometry of PBMC T and NK cells
Type: in vivo, rhesus macaques
Excerpt: Colorectal biopsy tissues were isolated by enzymatic digestion while LN biopsies were passed through a 70 μm cell strainer as described in (110). FlowJo vs 10.8 was use for both classical and high-dimensional analysis. PeacoQC, FlowtSNE and FlowSOM plug-ins were used with default settings. SwiftReg was used for normalization (113).
Peripheral blood mononuclear cells (PBMCs) collected from 8 macaques at 7 time points spanning Cycle 1 to Cycle 4 (refer to Table 5) were employed for high-parameter flow cytometry staining. Cells from before and after cycle 1 and at the end of cycle 3 were used for Tfh/Treg assay. In both cases, cell fixation and permeabilization for intracellular staining were carried out using the FoxP3 Staining Buffer set (Thermo Fisher Scientific, Carlsbad, CA). The high-dimensional panel consisted of antibodies outlined in Table 4, catering to requirements for surface and intracellular staining, as well as viability assessment. Each antibody was individually titrated to ensure optimal staining conditions. Data acquisition was performed using the FACSymphony A5.2 Spectral Analyzer. Following data collection, spectral compensation was implemented utilizing FlowJo™ v10.8 Software (BD Life Sciences). 60,000 live singlet lymphocytes from each of samples was downsampled to prevent disproportionate representation by samples with higher cell counts, ensuring balanced subsequent analysis. To mitigate batch effects, we utilized the swiftReg Neighbor-Dependent Cluster Registration (NDCR) method available within the SWIFT package(112). This method effectively addresses batch variations while preserving the inherent biological diversity. […] Furthermore, we implemented the Peak Extraction and Cleaning Oriented Quality Control (PeacoQC) procedure (138) in FlowJo™ v10.8 to eliminate low-quality events arising from potential issues like clogs, speed fluctuations, and slow sample uptake. FlowSOM FlowJo plugin was employed for automated cell population identification, preceded by the utilization of Phenograph to obtain optimal cluster numbers for dimensional reduction, for the merged data of All Time points and BC1 vs AC4 merged data respectively. The Supplementary FIG. 29A heatmap illustrates the median fluorescence intensity (MFI) values for all markers across all clusters. A tSNE plot, generated in FlowJo™ using the markers employed in the FlowSOM analysis, is presented, with coloring based on the FlowSOM clustering or two specific time points, BC1 vs AC4 in FIG. 4G.

Cc1cccc(-c2nn3c(c2-c2ccnc4ccc(C(N)=O)cc24)CCC3)n1 [galunisertib, Galunisertib]
proliferation marker Ki67 in NK cells (AC1 vs BC1): initial increase
T-Bet in CD8+ T cells (BC2 vs BC1): significant decrease
systemic immune activation (Example 5, end of 1st cycle, PBMC RNAseq, CD69 and CD38 on T cells): did non induce systemic immune activation
effector phenotype in T cells (CD95, CD62L) (Example 5, preliminary data): increased expression of CD95
TCF1 expression in CD4+ T cells (PBMC, throughout treatment): profound consistent decrease
expression of CD95 in CD4+ T cells (PBMC, throughout treatment): substantial increase
CD62L in CD4+ T cells (after the first cycle, reverted to baseline later): small decrease
expression of activation markers CD69, HLA-DR and Ki67 in CD4+ T cells (exception: HLA-DR increase at beginning of cycle 2): remained mostly unchanged
CCR7 expression in memory CD8+ T cells (rhesus monkey, in vivo): sustained significant increase
CD16 expression within NKG2A+CD8+ NK cells (rhesus monkey, in vivo): pronounced increase
CD95 expression in CD8+ T cells (rhesus monkey, in vivo): No significant increase
TCF1 downregulation in CD8+ T cells (rhesus monkey, in vivo): reached significance only at the end of the treatment
expression of CCR7 or CD28 within CD95+CD4+ T cells (rhesus monkey, in vivo): no change
expression of PD1 on CD4+ and CD8+ T cells (rhesus monkey, in vivo): either did not change or was slightly downregulated
frequency of naïve (CD95−) cells within CD4+ T cells (rhesus monkey, in vivo): decreased
gut homing receptor integrin α4β7 in CD4+ T cells (rhesus monkey, in vivo): downregulation
levels of T-bet in CD4+ T cells (rhesus monkey, in vivo): did not change significantly
levels of granzyme B in CD4+ T cells (rhesus monkey, in vivo): decrease
